# Measured values: US6046182A, “Steroid carbamates as potentiating agents” (Satish BATRA, priority 1996, dated 2000)
# pIC50: −log10 of the molar value. Read-outs that look alike come from different tables or passages of the source.
# Columns and labels:
# [1] = test system: AT-1; assay: Potentiation of daunorubicin (30 nM) in rat prostatic tumor cells AT-1 (cell survival, Coulter counter); assay type: cell-based
# [2] = test system: HCT-15; assay: Potentiation of daunorubicin (50 nM) in human colon tumor cells HCT-15 (cell survival, Coulter counter); assay type: cell-based; details: HCT-15, read-out: IC50, HCT-15 (concentration required to reduce cell survival by 50%)
# [3] = test system: HCT-15 cells; assay: In vivo HCT-15 subcutaneous xenograft in SCID mice, doxorubicin alone or plus compound 1:1; parameters: Significance (p) of difference in tumor growth between (1) vehicle and (2) doxorubicin, symbol * / Significance (p) of difference in tumor growth between (1) vehicle and (2) doxorubicin, symbol ***: dose or concentration left out as unconfirmed; details: days 9, 13, 17
# [4] = cited from earlier work
# [5] = test system: tumors; details: animal models; cited from earlier work
# [6] = with daunorubicin 30 nM, 24 h, then 96 h drug free, AT-1, read-out: IC50, AT-1 (concentration required to reduce cell survival by 50%)
smiles,measurement,setting,value
"CCCCN(CCCC)CCCNC(=O)OC1CC[C@@]2(C)C(=CC[C@H]3[C@@H]4CC[C@H](C(C)=O)[C@@]4(C)CC[C@@H]32)C1 (stereo partly shown) [1:4, pregn-5-ene-20-one-3-yl, N-(3-dibutylamino-propyl)-carbamate]",pIC50,[1]; [6],6.72
"CCCCN(CCCC)CCCNC(=O)OC(C)[C@H]1CC[C@H]2[C@@H]3CCC4=CC(=O)CC[C@]4(C)[C@H]3CC[C@]12C (stereo partly shown) [1:13, pregn-4-ene-3-one-20-yl, N-(3-dibutylamino-propyl)-carbamate]",pIC50,[1]; [6],6.68
"CC(=O)[C@H]1CC[C@H]2[C@@H]3CCC4=CC(=O)CC[C@]4(C)[C@H]3C(OC(=O)N(Cc3ccccc3)Cc3ccccc3)C[C@]12C (stereo partly shown) [1:35, pregn-4-ene-3,20-dione-11-yl, N,N-dibenzyl-carbamate]",pIC50,[1]; [6],6.82
"CCCCN(CCCC)C(=O)OC1C[C@]2(C)[C@@H](C(C)=O)CC[C@H]2[C@@H]2CCC3=CC(=O)CC[C@]3(C)[C@@H]12 (stereo partly shown) [Compound 1:1, pregn-4-ene-3,20-dione-11-yl, N,N-dibutylcarbamate]",pIC50,"[2]; with daunorubicin 50 nM, 24 h, then 96 h drug free",6.29
same,Potentiating effect in vivo,[3]; compound 1:1 400 mg/kg p.o. 2 hours before doxorubicin i.v.,potentiating effect
same,pIC50,[1]; [6],6.12
COc1ccc(CCN(C)CCCC2(c3ccc4ccccc4c3)SCCCS2)cc1OC [RO 11-2933],In vivo activity in combination with doxorubicin,[4],in vivo activity
COc1cccc2c1C(=O)c1c(O)c3c(c(O)c1C2=O)C[C@@](O)(C(=O)CO)C[C@@H]3O[C@H]1C[C@H](N)[C@H](O)[C@H](C)O1 [doxorubicin],"Significance (p) of difference in tumor growth between (1) vehicle and (2) doxorubicin, symbol *","[3]; doxorubicin i.v., symbol *",< 0.05
same,"Significance (p) of difference in tumor growth between (1) vehicle and (2) doxorubicin, symbol ***","[3]; doxorubicin i.v., symbol ***",< 0.005
CC12CCC3c4ccc(OC(=O)N(CCCl)CCCl)cc4CCC3C1CCC2O (stereo not shown) [estramustine],Potentiation of radiation effects on tumors,[5],potentiate radiation effects on tumors
same,pIC50,[2],< 5.60
COc1ccc(CCN(C)CCCC(C#N)(c2ccc(OC)c(OC)c2)C(C)C)cc1OC (stereo not shown) [verapamil],pIC50,[2],6.30
same,pIC50,"[1]; read-out: IC50, AT-1 (concentration required to reduce cell survival by 50%)",6.13
